Reference: patent US20100266504A1, “CONDENSED PYRIDINE DERIVATIVE AND USE THEREOF” (priority 2007, published 2010)
Counter-ions that a name gives are not always drawn. Like-named read-outs stand apart in the source and are kept apart here.

What was measured:
[1] = biological target: serotonin 5-HT2C receptor (isoform type VSV, stably expressing CHO cell) (Homo sapiens, UniProt P28335, I156V/I160V/N158S); assay: cell-based; conditions: for Emax: CHO, read-out: ratio relative to maximum response by 5-HT (1 μM); for ratio relative to maximum response by 5-HT (1 μM): hydrochloride
serotonin 5-HT2C receptor (isoform type VSV, stably expressing CHO cell), sequence (P28335 33-458 I156V/N158S/I160V limits assumed): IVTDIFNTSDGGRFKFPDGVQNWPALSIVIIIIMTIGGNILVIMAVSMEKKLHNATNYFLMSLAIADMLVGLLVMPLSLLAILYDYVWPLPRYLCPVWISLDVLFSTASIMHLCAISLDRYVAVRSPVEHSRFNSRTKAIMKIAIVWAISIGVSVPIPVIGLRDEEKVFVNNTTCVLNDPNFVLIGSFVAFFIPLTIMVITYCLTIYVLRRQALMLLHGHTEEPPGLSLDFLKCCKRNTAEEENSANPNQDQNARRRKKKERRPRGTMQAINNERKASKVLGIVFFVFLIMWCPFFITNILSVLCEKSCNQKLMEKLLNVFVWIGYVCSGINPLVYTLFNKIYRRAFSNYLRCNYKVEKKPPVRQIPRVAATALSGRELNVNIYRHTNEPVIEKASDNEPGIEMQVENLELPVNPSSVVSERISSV

[2] = tested on: spinal cord transected female rats whose hypogastric nerve and pudendal nerves were bilaterally cut; assay: urethral closure response induced by increased intravesical pressure (Experimental Example 5); conditions: for urethral closure response (cmH2O) after drug administration: i.v., 10 min after administration; for urethral closure response (cmH2O) after drug administration / urethral closure response (cmH2O) before drug administration: mean ± SEM, n=5; for urethral closure response (cmH2O) before drug administration: i.v. group; for effect on urethral closure response induced by increased intravesical pressure (in words): intravenous administration
Method: Female SD rats (body weight 200-310 g) were anesthetized with urethane (Wako Pure Chemical Industries, Ltd.), and the spinal cord was transected at T8-9 level to eliminate the micturition reflex. During the operation, halothane (Takeda Pharmaceutical Company Limited) anesthesia was added when necessary. After abdominal section, bladder neck was ligated with a suture thread, and then the hypogastric nerve and pudendal nerve were bilaterally transected. A catheter (PE-90, Clay Adams) was placed in the bladder, and the other end of the bladder catheter was connected to a pressure transducer and a water reservoir (60 ml syringe) of saline via a three-way cock. A microtip transducer catheter (SPR-524, Millar Instruments Inc.) was inserted toward the bladder from the urethral orifice, and adjusted using a scale on the catheter surface so that the transducer part is positioned in the urethra at 10.0-15.0 mm from the urethral orifice.
The changes in the topical pressure within the urinary tract (hereinafter conveniently indicated as urethral pressure) as measured by the microtip transducer was transmitted to a computer via an amplifier (blood pressure amplification unit AP-641G; NIHON KOHDEN) and a data analyzer (MP-100; biopack; sampled at 500 Hz), and recorded on a hard disc. […] The reaction of the urinary tract induced by an increased intravesical pressure was measured 3 times, and the average of the last 2 measures was taken as the value before drug administration. The evaluation item was reflex urethral closure response, and the recorded values were subjected to smoothing process at 500 points to calculate an average urethral pressure per 1 sec, after which the value immediately before increase in the intravesical pressure was subtracted from the maximum value on increase in the intravesical pressure and taken as the urethral closure response. […] The drugs were all dissolved in N,N-dimethylformamide/polyethylene glycol 400 (1:1) and administered intravenously at a volume of 0.5 ml/kg.

[3] = tested on: spinal cord-transected female rats under urethane anesthesia; assay: leak point pressure by high speed infusion method, serotonin 5-HT2C receptor agonists (Experimental Example 3); conditions: for change of leak point pressure (cmH2O): i.v., mean ± SEM; for effect on leak point pressure (in words): intravenous administration
Method: SD female rats (body weight 180-350 g) were anesthetized with urethane (Wako Pure Chemical Industries, Ltd.), and the spinal cord was cut at T8-9 level to eliminate the micturition reflex. During the operation, halothane (Takeda Pharmaceutical Company Limited) anesthesia was added as necessary. The rats were fixed at a dorsal position, and two catheters (PE-100; Clay Adams) were indwelled in the bladder. One of the catheters was filled with saline stained with Evans Blue dye (Merck), and connected to a 50 ml syringe (TERUMO CORPORATION) fixed on an infusion pump (KD Scientific) via a three-way cock. The other catheter was connected to a pressure transducer (DX-100; NIHON KOHDEN CORPORATION), and signals of the transducer were transmitted to computer via an amplifier (blood pressure amplification unit AP-641G; NIHON KOHDEN CORPORATION) and a data analyzer (BIOPAC; MP100), and recorded on a hard disk. The data was analyzed on the computer using a software (BIOPAC; AcqKnowledge). Saline was injected into the bladder using the infusion pump at a rate of 360 ml/hr, infusion was stopped on the moment fluid leakage from the urethral meatus was observed, and the solution in the bladder was discharged by opening the three-way cock. The maximum intravesical pressure during infusion was taken as a leak point pressure, which was measured repeatedly until the value was stabilized, and the average value of the last three measures was taken as the data. […] All the drugs were dissolved in DMA/PEG400 (1:1) and intravenously administered at 0.5 ml/kg.

[4] = tested on: spinal cord-transected female rats under urethane anesthesia; conditions: before vs after administration
Method: SD female rats (body weight 180-350 g) were anesthetized with urethane (Wako Pure Chemical Industries, Ltd.), and the spinal cord was cut at T8-9 level to eliminate the micturition reflex. During the operation, halothane (Takeda Pharmaceutical Company Limited) anesthesia was added as necessary. The rats were fixed at a dorsal position, and two catheters (PE-100; Clay Adams) were indwelled in the bladder. One of the catheters was filled with saline stained with Evans Blue dye (Merck), and connected to a 50 ml syringe (TERUMO CORPORATION) fixed on an infusion pump (KD Scientific) via a three-way cock. The other catheter was connected to a pressure transducer (DX-100; NIHON KOHDEN CORPORATION), and signals of the transducer were transmitted to computer via an amplifier (blood pressure amplification unit AP-641G; NIHON KOHDEN CORPORATION) and a data analyzer (BIOPAC; MP100), and recorded on a hard disk. The data was analyzed on the computer using a software (BIOPAC; AcqKnowledge). Saline was injected into the bladder using the infusion pump at a rate of 360 ml/hr, infusion was stopped on the moment fluid leakage from the urethral meatus was observed, and the solution in the bladder was discharged by opening the three-way cock. The maximum intravesical pressure during infusion was taken as a leak point pressure.

`CC1CNCc2ccc(N3CCOCC3)nc21` (single isomer, unassigned) [Example 73, (8R*)-8-Methyl-2-morpholin-4-yl-5,6,7,8-tetrahydro-1,6-naphthyridine hydrochloride] gave an Emax [1] of 101%.
With `CC1CNCc2ccc(N3CCOCC3)nc21` (single isomer, unassigned) [Example 74, (8S*)-8-Methyl-2-morpholin-4-yl-5,6,7,8-tetrahydro-1,6-naphthyridine hydrochloride] the “ratio relative to maximum response by 5-HT (1 μM)” value (shortened to “ratio relative to maximum response”) [1] was 103.
For `CC1CNCc2ccc(N(C)C(C)C)nc21` (single isomer, unassigned) [Example 79, (8R*)-N-Isopropyl-N,8-dimethyl-5,6,7,8-tetrahydro-1,6-naphthyridin-2-amine hydrochloride], the Emax [1] was 106%.
`CC1CNCc2ccc(N(C)C(C)C)nc21` (single isomer, unassigned) [Example 80, (8S*)-N-Isopropyl-N,8-dimethyl-5,6,7,8-tetrahydro-1,6-naphthyridin-2-amine hydrochloride] was tested, and the “ratio relative to maximum response” value [1] was 102.
Compound `CC1CNCc2ccc(N3CCOC[C@H]3C)nc21` (stereo in doubt) [Example 75, (8R*)-8-Methyl-2-[(3R)-3-methylmorpholin-4-yl]-5,6,7,8-tetrahydro-1,6-naphthyridine hydrochloride] has an Emax [1] of 103%.
For `CC1CNCc2ccc(N3CCOC[C@H]3C)nc21` (stereo in doubt) [Example 76, (8S*)-8-Methyl-2-[(3R)-3-methylmorpholin-4-yl]-5,6,7,8-tetrahydro-1,6-naphthyridine hydrochloride], the “ratio relative to maximum response” value [1] was 105.
In the case of `C[C@H]1CNCCc2ccc(Cl)cc21` [APD-356], the “urethral closure response (cmH2O) after drug administration” value ([2]; 1 mg/kg) is reported as 8.6 ± 2.7 cmH2O, the “urethral closure response (cmH2O) before drug administration” value ([2]; baseline of the 1 mg/kg) is reported as 5.3 ± 1.7 cmH2O and the “effect on urethral closure response induced by increased intravesical pressure (in words)” value [2] is reported as “enhanced the urethral closure response”. For the same compound, the “change of leak point pressure (cmH2O)” value ([3]; 0.1 mg/kg) was 5.2 ± 2.6 cmH2O, the “change of leak point pressure (cmH2O)” value ([3]; 1 mg/kg) was 19.2 ± 3.1 cmH2O and the “change of leak point pressure (cmH2O)” value ([3]; 3 mg/kg) was 28.9 ± 3.3 cmH2O. The “effect on leak point pressure (in words)” value [3] was “increased the leak point pressure in a dose-dependent manner”.
For `CC1CCNCc2ccc(N3CCOCC3)nc21` (centres unmarked) [Example 2, 9-Methyl-2-morpholin-4-yl-6,7,8,9-tetrahydro-5H-pyrido[3,2-c]azepine hydrochloride], the Emax [1] was 92.8%.
`CC1CNCc2ccc(-c3ccc(F)cc3)nc21` (centres unmarked) [Example 4, 2-(4-Fluorophenyl)-8-methyl-5,6,7,8-tetrahydro-1,6-naphthyridine hydrochloride] showed an Emax [1] of 101%.
In the case of `CC1CNCc2ccc(N3CCOCC3)nc21` (centres unmarked) [Example 5, 8-Methyl-2-morpholin-4-yl-5,6,7,8-tetrahydro-1,6-naphthyridine dihydrochloride], the Emax [1] is reported as 101%.
For `c1cc2c(nc1N1CCOCC1)CCNC2` [Example 6, 2-Morpholin-4-yl-5,6,7,8-tetrahydro-1,6-naphthyridine], the Emax [1] was 100%.
Work on `C[C@@H]1COCCN1c1ccc2c(n1)CCNC2` [Example 7, 2-[(3R)-3-Methylmorpholin-4-yl]-5,6,7,8-tetrahydro-1,6-naphthyridine hydrochloride] yielded an Emax [1] of 95.6%.
With `C[C@H]1COCCN1c1ccc2c(n1)CCNC2` [Example 8, 2-[(3S)-3-Methylmorpholin-4-yl]-5,6,7,8-tetrahydro-1,6-naphthyridine hydrochloride] the Emax [1] was 90.8%.
In the case of `CCN(C)c1ccc2c(n1)CCNC2` [Example 15, N-Ethyl-N-methyl-5,6,7,8-tetrahydro-1,6-naphthyridin-2-amine hydrochloride], the Emax [1] is reported as 102%.
`CC(C)N(C)c1ccc2c(n1)CCNC2` [Example 17, N-Isopropyl-N-methyl-5,6,7,8-tetrahydro-1,6-naphthyridin-2-amine hydrochloride] gave an Emax [1] of 100%.
For `CC(C)c1ccc2c(n1)CCNC2` [Example 24, 2-Isopropyl-5,6,7,8-tetrahydro-1,6-naphthyridine hydrochloride], the Emax [1] was 101%.
`c1cc(-c2ccc3c(n2)CCNC3)co1` [Example 26, 2-(3-Furyl)-5,6,7,8-tetrahydro-1,6-naphthyridine dihydrochloride] was tested, and the Emax [1] was 98.2%.
With `Fc1ccc(-c2ccc3c(n2)CCNC3)cc1` [Example 27, 2-(4-Fluorophenyl)-5,6,7,8-tetrahydro-1,6-naphthyridine dihydrochloride] the Emax [1] was 91.7%.
Compound `CSc1ccc(-c2ccc3c(n2)CCNC3)cc1` [Example 28, 2-[4-(Methylthio)phenyl]-5,6,7,8-tetrahydro-1,6-naphthyridine dihydrochloride] has an Emax [1] of 102%.
For `FC(F)(F)c1ccc(-c2ccc3c(n2)CCNC3)cc1` [Example 29, 2-[4-(Trifluoromethyl)phenyl]-5,6,7,8-tetrahydro-1,6-naphthyridine dihydrochloride], the Emax [1] was 97%.
`CC(C)Oc1ccc2c(n1)CCNC2` [Example 30, 2-Isopropoxy-5,6,7,8-tetrahydro-1,6-naphthyridine hydrochloride] showed an Emax [1] of 97.8%.
With `CC(Oc1ccc2c(n1)CCNC2)C1CC1` (centres unmarked) [Example 31, 2-(1-Cyclopropylethoxy)-5,6,7,8-tetrahydro-1,6-naphthyridine hydrochloride] the Emax [1] was 88.4%.
For `c1cc2c(nc1C1CC1)CCNC2` [Example 43, 2-Cyclopropyl-5,6,7,8-tetrahydro-1,6-naphthyridine hydrochloride], the Emax [1] was 97%.
With `CC1CNCc2ccc(N3CCOC[C@H]3C)nc21` (stereo partly drawn) [Example 48, 8-Methyl-2-[(3R)-3-methylmorpholin-4-yl]-5,6,7,8-tetrahydro-1,6-naphthyridine hydrochloride] the Emax [1] was 95.5%.
With `CC1CNCc2ccc(N(C)C(C)C)nc21` (centres unmarked) [Example 53, N-Isopropyl-N,8-dimethyl-5,6,7,8-tetrahydro-1,6-naphthyridin-2-amine hydrochloride] the Emax [1] was 91%.
With `O=C1Nc2cc(Cl)c(Cl)cc2N2CCNCC12` (centres unmarked) [WAY-161503] the “change of leak point pressure (cmH2O)” value ([3]; 0.03 mg/kg) was 7.4 ± 3.8 cmH2O, the “change of leak point pressure (cmH2O)” value ([3]; 0.3 mg/kg) was 12.8 ± 1.0 cmH2O and the “effect on leak point pressure (in words)” value [3] was “increased the leak point pressure in a dose-dependent manner”.
In the case of `c1cc2c3c(c1)[C@H]1CCC[C@H]1N3CCNC2` [WAY-163909], the “urethral closure response (cmH2O) after drug administration” value ([2]; 3 mg/kg) is reported as 10.2 ± 1.6 cmH2O, the “urethral closure response (cmH2O) before drug administration” value ([2]; baseline of the 3 mg/kg) is reported as 4.4 ± 0.8 cmH2O and the “effect on urethral closure response induced by increased intravesical pressure (in words)” value [2] is reported as “enhanced the urethral closure response”. The “change of leak point pressure (cmH2O)” value ([3]; 0.1 mg/kg) was 4.4 ± 1.6 cmH2O, the “change of leak point pressure (cmH2O)” value ([3]; 1 mg/kg) was 12.9 ± 4.2 cmH2O and the “change of leak point pressure (cmH2O)” value ([3]; 3 mg/kg) was 30.1 ± 2.6 cmH2O. For the same compound, the “effect on leak point pressure (in words)” value [3] was “increased the leak point pressure in a dose-dependent manner”.
With `c1cc2c(nc1N1CCOCC1)OCCNC2` [compound A, 8-morpholin-4-yl-2,3,4,5-tetrahydropyrido[3,2-f][1,4]oxazepine] the “urethral closure response (cmH2O) after drug administration” value ([2]; 1 mg/kg) was 7.5 ± 1.6 cmH2O, the “urethral closure response (cmH2O) before drug administration” value ([2]; baseline of the 1 mg/kg) was 4.6 ± 0.8 cmH2O and the “effect on urethral closure response induced by increased intravesical pressure (in words)” value [2] was “enhanced the urethral closure response”. For the same compound, the “change of leak point pressure (cmH2O)” value ([3]; 0.1 mg/kg) was 8.4 ± 5.0 cmH2O, the “change of leak point pressure (cmH2O)” value ([3]; 1 mg/kg) was 10.3 ± 2.4 cmH2O and the “change of leak point pressure (cmH2O)” value ([3]; 3 mg/kg) was 25.7 ± 8.7 cmH2O. The “effect on leak point pressure (in words)” value [3] was “increased the leak point pressure in a dose-dependent manner”.
With `CNCC[C@H](Oc1cccc2ccccc12)c1cccs1` [duloxetine] the “change of leak point pressure (cmH2O)” value ([4]; 1 mg/kg, i.v., mean ± SEM, n=5) was 11.4 ± 2.4 cmH2O and the “effect on leak point pressure (in words)” value ([4]; intravenous administration) was “significantly increased the leak point pressure”.
